Common to all, as to format: functional
Assay [1] has as its system Acinetobacter baumannii. Put plainly: Antimicrobial activity against Acinetobacter baumannii ATCC 19606 after 24 hrs. The settings on record: ATCC 19606 = CIP 70.34 = JCM 6841, 24 h.
Assay [2] concerns Acinetobacter baumannii. The assay can be described thus: Antimicrobial activity against Acinetobacter baumannii WRAIR after 24 hrs.
Another assay relates to Staphylococcus aureus. Put plainly: Antimicrobial activity against methicillin-resistant Staphylococcus aureus ATCC 33591 after 24 hrs. To be noted: ATCC 33591, 24 h.
In the next assay the test system is Yersinia pestis. The assay can be described thus: Antimicrobial activity against Yersinia pestis CO92 after 24 hrs. The settings on record: CO92, 24 h.
Another assay has as its system Brucella melitensis. Put plainly: Antimicrobial activity against Brucella melitensis 16 M after 24 hrs.
A further assay deals with Brucella abortus. Put plainly: Antimicrobial activity against Brucella abortus 2308 after 24 hrs. The settings on record: Brucella abortus, 2308, 24 h.
Another assay concerns Brucella suis. The assay can be described thus: Antimicrobial activity against Brucella suis ATCC 23445 after 24 hrs. The settings on record: ATCC 23445, 24 h.
The test system of another assay is Bacillus anthracis. Put plainly: Antimicrobial activity against Bacillus anthracis Ames after 24 hrs.
A further assay relates to Francisella tularensis. Put plainly: Antimicrobial activity against Francisella tularensis SCHU-S4 after 24 hrs. The settings on record: SCHU-S4, 24 h.
In a further assay the test system is Burkholderia mallei. Put plainly: Antimicrobial activity against Burkholderia mallei ATCC 23444 after 24 hrs. The settings on record: ATCC 23444, 24 h.
Assay [3] concerns Burkholderia pseudomallei. Put plainly: Antimicrobial activity against Burkholderia pseudomallei BURK003(1026b) after 24 hrs.

The structures appear in SMILES notation. Values after ≈ are worked out from the molar mass of the structure shown. Starred links: 1 amine or outer side, 2 acyl side, 3 side chain; linkers in the order of their positions; H or OH if unused. Non-standard residues stand in square brackets, D forms with d. Residues, ends and D or L forms follow the SMILES beside them. X1 = O=C([C@@H]1CN([*:1])C2CCCCC21)[*:2]; X2 = O=C([C@H]1CN([*:1])C2CCCCC21)[*:2]; Tic = O=C(O)[C@@H]1Cc2ccccc2CN1

As for `CC(C)C[C@H](NC(=O)[C@@H](N)CCCCN)C(=O)N1Cc2ccccc2C[C@H]1C(=O)N1C[C@@H](C(=O)N[C@@H](CCCCN)C(=O)N2Cc3ccccc3C[C@H]2C(=O)N2C[C@@H](C(=O)N[C@@H](Cc3ccccc3)C(=O)N3Cc4ccccc4C[C@H]3C(=O)N3C[C@@H](C(=O)N[C@@H](CCCCN)C(=O)N4Cc5ccccc5C[C@H]4C(=O)N4C[C@@H](C(=O)N[C@@H](Cc5ccccc5)C(=O)N5Cc6ccccc6C[C@H]5C(=O)N5C[C@@H](C(=O)N[C@@H](CCCCN)C(=O)N6Cc7ccccc7C[C@H]6C(=O)N6C[C@@H](C(=O)N[C@@H](CCCCN)C(=O)N[C@@H](CCCNC(=N)N)C(N)=O)C7CCCCC76)C6CCCCC65)C5CCCCC54)C4CCCCC43)C3CCCCC32)C2CCCCC21` (some centres undefined) (H-KL[Tic][X1]K[Tic][X1]F[Tic][X1]K[Tic][X1]F[Tic][X1]K[Tic][X1]KR-NH2), the MIC against Acinetobacter baumannii [1] was 40.5 µM (≈ 125 µg/mL); against Acinetobacter baumannii [2], 162 µM (≈ 500 µg/mL); in the assay with Staphylococcus aureus, 162 µM (≈ 500 µg/mL); with Yersinia pestis it was 162 µM (≈ 500 µg/mL); in the assay on Brucella melitensis, 162 µM (≈ 500 µg/mL); with Brucella abortus, 500 µM (≈ 1540 µg/mL). The MIC in the assay on Brucella suis was 162 µM (≈ 500 µg/mL); against Bacillus anthracis, 40.5 µM (≈ 125 µg/mL); in the assay with Francisella tularensis, 81 µM (≈ 250 µg/mL); in the assay on Burkholderia mallei, 162 µM (≈ 500 µg/mL); in assay [3], 162 µM (≈ 500 µg/mL).
Take `CC(=O)NCC(=O)N[C@@H](Cc1ccccc1)C(=O)N1C[C@@H](C(=O)N2C[C@H](C(=O)NCC(=O)N[C@@H](CCCCN)C(=O)N3C[C@@H](C(=O)N4C[C@@H](C(=O)NCC(=O)N[C@@H](Cc5ccccc5)C(=O)N5C[C@@H](C(=O)N6C[C@@H](C(=O)NCC(=O)N[C@@H](CCCCN)C(=O)N7Cc8ccccc8C[C@H]7C(=O)N[C@@H](CCCCN)C(=O)N[C@@H](CCCCN)C(=O)N[C@@H](CCCCN)C(=O)N[C@@H](CCCCN)C(N)=O)C7CCCCC76)C6CCCCC65)C5CCCCC54)C4CCCCC43)C3CCCCC32)C2CCCCC21` (some centres undefined) (Ac-GF[X1][X2]GK[X1][X1]GF[X1][X1]GK[Tic]KKKK-NH2): the MIC against Acinetobacter baumannii [1] amounted to 3.2 µM (≈ 7.73 µg/mL); with Acinetobacter baumannii [2], 3.2 µM (≈ 7.73 µg/mL); in the assay with Staphylococcus aureus, 207 µM (≈ 500 µg/mL); in the assay with Yersinia pestis, 207 µM (≈ 500 µg/mL); in the assay with Brucella melitensis, 207 µM (≈ 500 µg/mL); in the assay on Brucella abortus, 207 µM (≈ 500 µg/mL). Besides, the MIC in the assay on Brucella suis turned out to be 207 µM (≈ 500 µg/mL); in the assay on Bacillus anthracis, 26 µM (≈ 62.8 µg/mL); in the assay on Francisella tularensis it was 104 µM (≈ 251 µg/mL); in the assay with Burkholderia mallei it was 207 µM (≈ 500 µg/mL); in [3], 207 µM (≈ 500 µg/mL).
Take `CC(=O)NCC(=O)N[C@@H](Cc1ccccc1)C(=O)N1Cc2ccccc2C[C@H]1C(=O)N1C[C@@H](C(=O)NCC(=O)N[C@@H](CCCNC(=N)N)C(=O)N2Cc3ccccc3C[C@H]2C(=O)N2C[C@@H](C(=O)NCC(=O)N[C@@H](Cc3ccccc3)C(=O)N3Cc4ccccc4C[C@H]3C(=O)N3C[C@@H](C(=O)NCC(=O)N[C@@H](CCCNC(=N)N)C(=O)N4Cc5ccccc5C[C@H]4C(=O)N[C@@H](CCCNC(=N)N)C(=O)N[C@@H](CCCNC(=N)N)C(=O)N[C@@H](CCCNC(=N)N)C(=O)N[C@@H](CCCNC(=N)N)C(N)=O)C4CCCCC43)C3CCCCC32)C2CCCCC21` (some centres undefined) (Ac-GF[Tic][X1]GR[Tic][X1]GF[Tic][X1]GR[Tic]RRRR-NH2): the MIC with Acinetobacter baumannii [1] was found to be 5.98 µM (≈ 15.6 µg/mL); against Acinetobacter baumannii [2], 24 µM (≈ 62.6 µg/mL); in the assay on Staphylococcus aureus, 96 µM (≈ 250 µg/mL); against Yersinia pestis it was 192 µM (≈ 501 µg/mL); in the assay on Brucella melitensis, 192 µM (≈ 501 µg/mL); in the assay with Brucella abortus, 192 µM (≈ 501 µg/mL). For the same compound, the MIC turned out to be 192 µM (≈ 501 µg/mL) with Brucella suis; 5.98 µM (≈ 15.6 µg/mL) in the assay with Bacillus anthracis; 192 µM (≈ 501 µg/mL) against Francisella tularensis; 192 µM (≈ 501 µg/mL) with Burkholderia mallei; 192 µM (≈ 501 µg/mL) in [3].
In the case of `C[C@H]1c2cccc(O)c2C(=O)C2=C(O)[C@]3(O)C(=O)C(C(N)=O)=C(O)[C@@H](N(C)C)[C@@H]3[C@@H](O)[C@@H]21` [DOXYCYCLINE], the MIC in the assay on Acinetobacter baumannii [1] came to 0.56 µM (≈ 0.249 µg/mL); in the assay with Acinetobacter baumannii [2], 0.56 µM (≈ 0.249 µg/mL); against Staphylococcus aureus, 17.6 µM (≈ 7.82 µg/mL); in the assay on Yersinia pestis, 0.56 µM (≈ 0.249 µg/mL); in the assay on Brucella melitensis, 0.56 µM (≈ 0.249 µg/mL); with Brucella abortus, 0.56 µM (≈ 0.249 µg/mL). Besides, the MIC in the assay on Brucella suis amounted to 0.56 µM (≈ 0.249 µg/mL); against Bacillus anthracis, 0.27 µM (≈ 0.12 µg/mL); against Francisella tularensis it was 0.09 µM (≈ 0.04 µg/mL); in the assay on Burkholderia mallei, 0.09 µM (≈ 0.04 µg/mL); in assay [3], 0.09 µM (≈ 0.04 µg/mL).

Values taken from ChEMBL document CHEMBL1255229, “Novel antimicrobial peptides that exhibit activity against select agents and other drug resistant bacteria” (2010).
